Measured values published in ChEMBL document CHEMBL1201862, “PubChem BioAssay data set” (2004).
Activity calls are given as the source filed them.

Assays:
[1] = target: T1, E3 ubiquitin-protein ligase XIAP (Homo sapiens, UniProt P98170); test: small molecules displacing peptide from XIAP – biochemical, IAP family, fluorescence polarization (AID 1018); assay type: functional
[2] = target: T1, E3 ubiquitin-protein ligase XIAP; test: Counter Screen using XIAP-Bir3 for Chemical Antagonists of Bir1/2 domains of IAP-family anti-apoptotic proteins. [Related pubchem assays (depositor defined):AID1018, AID1449, AID1514, AID1638, AID1749, AID1750, AID488957, AID488963]
[3] = target: Procathepsin L (Homo sapiens, UniProt P07711); test: CTSL1 protease inhibition – biochemical, QFRET, 1536-well, counter-screen for M1/M17 aminopeptidase inhibitor project, dose response (AID 2214)
[4] = target: T2, Aminopeptidase N (Plasmodium falciparum FcB1/Columbia, UniProt O96935); test: malaria alanyl aminopeptidase activity blockers – biochemical, fluorogenic H-Leu-NHMec substrate, 1536-well (AID 1445); parameters: species or system Plasmodium falciparum 3D7, 3D7
T2 sequence (O96935 whole entry): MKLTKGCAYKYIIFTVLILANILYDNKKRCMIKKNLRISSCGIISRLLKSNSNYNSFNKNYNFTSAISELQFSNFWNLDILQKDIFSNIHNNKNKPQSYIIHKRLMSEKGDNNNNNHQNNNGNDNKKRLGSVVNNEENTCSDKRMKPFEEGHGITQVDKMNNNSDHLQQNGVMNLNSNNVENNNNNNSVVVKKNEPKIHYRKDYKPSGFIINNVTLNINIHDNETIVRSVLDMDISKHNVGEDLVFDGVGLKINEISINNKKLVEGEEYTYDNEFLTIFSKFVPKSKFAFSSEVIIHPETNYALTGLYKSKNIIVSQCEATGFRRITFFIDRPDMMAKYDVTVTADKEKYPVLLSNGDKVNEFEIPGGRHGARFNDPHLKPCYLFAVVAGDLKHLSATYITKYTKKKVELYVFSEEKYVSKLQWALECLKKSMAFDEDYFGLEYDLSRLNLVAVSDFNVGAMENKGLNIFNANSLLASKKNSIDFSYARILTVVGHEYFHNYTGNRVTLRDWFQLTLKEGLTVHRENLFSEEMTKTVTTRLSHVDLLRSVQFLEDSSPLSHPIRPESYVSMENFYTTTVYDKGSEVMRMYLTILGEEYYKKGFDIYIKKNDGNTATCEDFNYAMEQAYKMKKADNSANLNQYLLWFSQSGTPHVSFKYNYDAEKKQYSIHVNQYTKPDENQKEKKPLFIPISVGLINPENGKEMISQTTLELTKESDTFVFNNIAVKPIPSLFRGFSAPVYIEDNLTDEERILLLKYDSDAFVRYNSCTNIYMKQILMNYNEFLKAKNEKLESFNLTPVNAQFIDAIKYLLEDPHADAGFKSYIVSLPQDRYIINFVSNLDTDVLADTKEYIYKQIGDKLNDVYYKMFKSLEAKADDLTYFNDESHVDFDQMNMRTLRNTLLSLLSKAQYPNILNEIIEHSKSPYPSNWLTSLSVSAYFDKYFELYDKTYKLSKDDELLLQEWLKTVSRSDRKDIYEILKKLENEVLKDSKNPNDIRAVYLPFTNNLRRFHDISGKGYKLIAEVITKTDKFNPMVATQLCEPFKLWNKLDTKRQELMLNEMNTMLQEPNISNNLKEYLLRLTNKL

[5] = target: T3, Aspartyl aminopeptidase (Plasmodium falciparum 3D7, UniProt Q8I2J3); test: Counterscreen for inhibitors of M1 and M17 aminopeptidases: QFRET-based biochemical high throughput dose response assay for inhibitors of the Plasmodium falciparum M18 Aspartyl Aminopeptidase (PFM18AAP). [Related PubChem assays: 1619 (Screening assay (M17LAP inhibitors).), 1445 (Screening assay (M1AAP inhibitors).)]
T3 sequence (Q8I2J3 whole entry): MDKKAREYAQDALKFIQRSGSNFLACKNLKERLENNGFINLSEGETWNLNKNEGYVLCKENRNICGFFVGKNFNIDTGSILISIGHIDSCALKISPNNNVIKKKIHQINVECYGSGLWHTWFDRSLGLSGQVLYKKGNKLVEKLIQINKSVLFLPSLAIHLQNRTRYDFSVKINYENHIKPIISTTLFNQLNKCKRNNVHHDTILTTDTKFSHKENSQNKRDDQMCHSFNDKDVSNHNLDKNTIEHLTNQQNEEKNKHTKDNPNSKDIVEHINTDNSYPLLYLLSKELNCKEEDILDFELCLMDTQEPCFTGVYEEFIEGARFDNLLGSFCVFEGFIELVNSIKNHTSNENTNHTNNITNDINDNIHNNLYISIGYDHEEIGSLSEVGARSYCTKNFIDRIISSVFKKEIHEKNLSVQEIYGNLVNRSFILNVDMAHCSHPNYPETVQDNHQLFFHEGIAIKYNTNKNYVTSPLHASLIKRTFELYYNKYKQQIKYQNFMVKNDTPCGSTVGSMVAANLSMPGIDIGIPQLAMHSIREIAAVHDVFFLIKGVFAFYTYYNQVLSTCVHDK

[6] = target: Sphingosine 1-phosphate receptor 2 (Homo sapiens, UniProt O95136); test: Dose Response Cell Based Assay for Agonists of the S1P2 Receptor of Purchased Analogues. [Related pubchem assays: 729, 843, 854, 736 ]; assay type: functional
Chain of Sphingosine 1-phosphate receptor 2 (O95136 whole entry): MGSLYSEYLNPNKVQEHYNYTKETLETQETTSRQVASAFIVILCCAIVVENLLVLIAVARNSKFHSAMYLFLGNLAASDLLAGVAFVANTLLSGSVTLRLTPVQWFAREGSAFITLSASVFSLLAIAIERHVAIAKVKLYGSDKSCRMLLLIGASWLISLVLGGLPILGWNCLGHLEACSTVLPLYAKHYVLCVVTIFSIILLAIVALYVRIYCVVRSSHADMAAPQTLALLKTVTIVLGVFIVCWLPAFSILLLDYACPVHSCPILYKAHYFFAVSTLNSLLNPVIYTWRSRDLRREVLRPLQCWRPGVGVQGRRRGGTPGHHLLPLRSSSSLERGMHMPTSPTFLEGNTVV

[7] = target: NADPH oxidase 1 (Homo sapiens, UniProt Q9Y5S8); assay type: functional, cell-based;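 note: Cell-based assay with luminescence read-out, IC50 derived from inhibitor dose-response curves; intracellular ROS from endogenous NOX1 in intact HT29 colon cancer cells; potency of inhibitors that lower the ROS luminescence signal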
[8] = target: T4, Voltage-gated N-type calcium channel alpha-1B subunit/Amyloid beta A4 precursor protein-binding family A member 1 (Homo sapiens, UniProt Q00975+Q02410); assay type: protein assay
T4 sequence (Q00975 whole entry): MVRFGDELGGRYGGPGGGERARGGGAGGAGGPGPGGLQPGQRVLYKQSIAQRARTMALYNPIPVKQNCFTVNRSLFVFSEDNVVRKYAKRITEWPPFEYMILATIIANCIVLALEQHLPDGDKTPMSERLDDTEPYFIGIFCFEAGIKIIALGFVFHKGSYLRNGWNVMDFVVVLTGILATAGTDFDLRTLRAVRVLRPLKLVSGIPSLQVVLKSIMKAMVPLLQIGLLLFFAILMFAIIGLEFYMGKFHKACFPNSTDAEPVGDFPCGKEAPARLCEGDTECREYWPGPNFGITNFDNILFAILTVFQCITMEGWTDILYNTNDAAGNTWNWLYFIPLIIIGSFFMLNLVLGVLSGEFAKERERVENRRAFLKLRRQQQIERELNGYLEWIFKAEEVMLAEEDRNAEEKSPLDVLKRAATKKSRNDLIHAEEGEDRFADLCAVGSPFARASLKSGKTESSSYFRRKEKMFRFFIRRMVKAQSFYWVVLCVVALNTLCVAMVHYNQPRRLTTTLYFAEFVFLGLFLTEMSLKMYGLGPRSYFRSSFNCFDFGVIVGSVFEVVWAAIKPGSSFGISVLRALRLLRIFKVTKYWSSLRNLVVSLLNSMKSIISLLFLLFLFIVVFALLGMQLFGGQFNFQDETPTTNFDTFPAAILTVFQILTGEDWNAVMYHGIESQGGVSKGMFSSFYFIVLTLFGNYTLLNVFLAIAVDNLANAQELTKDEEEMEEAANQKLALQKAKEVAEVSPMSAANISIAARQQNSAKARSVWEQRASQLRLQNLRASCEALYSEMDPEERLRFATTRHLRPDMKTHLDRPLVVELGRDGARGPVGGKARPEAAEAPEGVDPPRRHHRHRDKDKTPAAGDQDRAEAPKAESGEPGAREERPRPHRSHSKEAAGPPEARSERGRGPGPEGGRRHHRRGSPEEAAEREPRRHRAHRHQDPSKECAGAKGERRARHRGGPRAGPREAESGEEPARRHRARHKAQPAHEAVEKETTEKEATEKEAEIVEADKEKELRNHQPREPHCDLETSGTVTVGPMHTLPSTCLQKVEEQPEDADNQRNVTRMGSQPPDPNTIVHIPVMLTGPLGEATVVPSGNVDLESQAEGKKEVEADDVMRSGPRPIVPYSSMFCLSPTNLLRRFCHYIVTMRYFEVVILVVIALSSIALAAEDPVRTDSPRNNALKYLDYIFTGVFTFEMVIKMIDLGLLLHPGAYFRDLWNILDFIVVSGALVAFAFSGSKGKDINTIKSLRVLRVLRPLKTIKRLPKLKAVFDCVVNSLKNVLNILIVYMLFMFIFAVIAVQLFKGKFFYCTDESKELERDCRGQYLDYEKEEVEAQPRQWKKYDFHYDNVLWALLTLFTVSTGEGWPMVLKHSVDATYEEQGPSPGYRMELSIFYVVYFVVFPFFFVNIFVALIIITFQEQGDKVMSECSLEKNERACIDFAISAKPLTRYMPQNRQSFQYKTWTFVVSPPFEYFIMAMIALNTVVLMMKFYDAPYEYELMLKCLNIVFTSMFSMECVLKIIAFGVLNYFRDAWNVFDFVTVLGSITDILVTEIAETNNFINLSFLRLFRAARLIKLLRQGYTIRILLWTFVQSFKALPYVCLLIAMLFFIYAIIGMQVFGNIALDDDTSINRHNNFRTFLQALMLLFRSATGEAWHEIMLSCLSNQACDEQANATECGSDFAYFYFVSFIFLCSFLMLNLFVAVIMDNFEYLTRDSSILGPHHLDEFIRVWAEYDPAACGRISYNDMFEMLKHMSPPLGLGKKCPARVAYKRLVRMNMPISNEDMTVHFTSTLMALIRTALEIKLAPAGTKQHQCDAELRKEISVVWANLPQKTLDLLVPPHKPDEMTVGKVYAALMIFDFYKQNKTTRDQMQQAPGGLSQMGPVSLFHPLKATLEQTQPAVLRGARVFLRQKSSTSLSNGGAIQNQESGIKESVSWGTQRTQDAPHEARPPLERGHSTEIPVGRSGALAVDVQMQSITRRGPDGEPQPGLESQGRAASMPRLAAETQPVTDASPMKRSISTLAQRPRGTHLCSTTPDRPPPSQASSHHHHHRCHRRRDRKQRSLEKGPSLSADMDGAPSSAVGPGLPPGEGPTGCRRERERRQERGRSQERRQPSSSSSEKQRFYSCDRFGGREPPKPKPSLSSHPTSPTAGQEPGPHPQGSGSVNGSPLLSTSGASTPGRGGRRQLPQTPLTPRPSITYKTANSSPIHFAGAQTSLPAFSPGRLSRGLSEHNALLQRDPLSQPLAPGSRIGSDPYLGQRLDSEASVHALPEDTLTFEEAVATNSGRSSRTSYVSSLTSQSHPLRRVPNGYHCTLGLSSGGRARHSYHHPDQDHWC
T4 sequence (Q02410 whole entry): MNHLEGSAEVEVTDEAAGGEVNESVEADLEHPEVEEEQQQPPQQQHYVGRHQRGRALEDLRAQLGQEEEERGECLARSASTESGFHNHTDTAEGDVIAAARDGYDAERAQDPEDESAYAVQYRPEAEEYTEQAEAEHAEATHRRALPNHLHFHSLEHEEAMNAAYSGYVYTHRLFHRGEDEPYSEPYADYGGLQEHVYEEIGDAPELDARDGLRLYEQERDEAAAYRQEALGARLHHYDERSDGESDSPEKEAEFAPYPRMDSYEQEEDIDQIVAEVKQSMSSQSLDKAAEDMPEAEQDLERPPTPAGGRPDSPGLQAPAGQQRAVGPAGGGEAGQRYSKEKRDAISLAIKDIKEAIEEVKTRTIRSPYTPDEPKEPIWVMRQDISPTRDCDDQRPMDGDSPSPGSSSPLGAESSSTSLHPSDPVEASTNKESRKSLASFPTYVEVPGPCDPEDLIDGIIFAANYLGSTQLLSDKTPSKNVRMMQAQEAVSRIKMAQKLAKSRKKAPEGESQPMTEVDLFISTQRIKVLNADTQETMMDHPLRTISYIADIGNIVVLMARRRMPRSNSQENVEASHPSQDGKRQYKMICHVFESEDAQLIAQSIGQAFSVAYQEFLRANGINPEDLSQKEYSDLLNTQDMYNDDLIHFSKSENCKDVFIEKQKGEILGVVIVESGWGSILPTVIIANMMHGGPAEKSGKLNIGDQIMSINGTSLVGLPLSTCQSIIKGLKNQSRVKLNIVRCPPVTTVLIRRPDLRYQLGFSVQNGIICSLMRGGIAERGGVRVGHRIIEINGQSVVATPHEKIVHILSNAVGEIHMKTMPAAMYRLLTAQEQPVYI

[9] = target: T4, Voltage-gated N-type calcium channel alpha-1B subunit/Amyloid beta A4 precursor protein-binding family A member 1; assay type: protein assay; remark: listed apart in the source
[10] = target: T5, Mannose-6-phosphate isomerase (Homo sapiens, UniProt P34949); test: MPI enzyme activity inhibition – biochemical, fluorescence intensity, coupled assay, primary screen (AID 1209)
T5 sequence (P34949 whole entry): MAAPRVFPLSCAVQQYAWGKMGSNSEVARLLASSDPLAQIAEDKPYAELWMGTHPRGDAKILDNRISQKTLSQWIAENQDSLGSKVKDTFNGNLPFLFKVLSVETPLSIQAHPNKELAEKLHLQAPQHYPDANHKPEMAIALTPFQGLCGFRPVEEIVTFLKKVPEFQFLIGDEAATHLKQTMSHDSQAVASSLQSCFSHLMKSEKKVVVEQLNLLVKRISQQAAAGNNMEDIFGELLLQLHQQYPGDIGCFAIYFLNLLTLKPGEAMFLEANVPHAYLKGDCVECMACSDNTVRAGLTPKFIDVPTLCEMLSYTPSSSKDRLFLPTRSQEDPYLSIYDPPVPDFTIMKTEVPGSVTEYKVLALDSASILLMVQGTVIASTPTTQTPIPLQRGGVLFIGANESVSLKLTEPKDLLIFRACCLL

[11] = target: T5, Mannose-6-phosphate isomerase; test: MPI inhibition at elevated mannose 6-phosphate – biochemical, fluorescence intensity, high mannose 6-phosphate, primary screen (AID 1220)
[12] = system: Streptococcus; test: GAS bacterial viability reduction – luminescence, BacTiter-Glo, strain UMAA2166, counter-screen for streptokinase expression inhibitor project, dose response (AID 2477); assay type: functional, organism-based
[13] = target: T6, Streptokinase A (Streptococcus pyogenes serotype M1, UniProt P10520); test: Absorbance Microorganism-Based Dose Response Follow up to Identify Inhibitors of Streptokinase Expression. [Related pubchem assays: 1677 (Project Summary), 1915, 1914, 1902 (Retest at Dose), 1900 (Counter Screen), 1662 (Primary HTS)]; assay type: functional, Streptococcus pyogenes M1 GAS
T6 sequence (P10520 whole entry): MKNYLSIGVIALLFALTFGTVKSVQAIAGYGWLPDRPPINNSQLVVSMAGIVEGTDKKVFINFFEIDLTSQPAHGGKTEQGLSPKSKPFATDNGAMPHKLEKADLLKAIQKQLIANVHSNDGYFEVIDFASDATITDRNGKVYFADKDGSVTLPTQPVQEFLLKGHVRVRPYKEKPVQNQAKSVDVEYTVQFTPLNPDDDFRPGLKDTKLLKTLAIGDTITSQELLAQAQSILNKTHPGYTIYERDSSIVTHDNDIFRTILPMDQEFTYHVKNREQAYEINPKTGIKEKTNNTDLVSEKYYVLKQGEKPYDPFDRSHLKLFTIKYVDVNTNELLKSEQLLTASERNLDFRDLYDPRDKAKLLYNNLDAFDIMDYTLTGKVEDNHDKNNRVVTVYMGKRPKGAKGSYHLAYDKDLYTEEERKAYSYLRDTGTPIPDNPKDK

[14] = target: Ion channel NompC (Danio rerio, UniProt Q7T1G6); test: Fluorescence counterscreen assay for TRPML3 agonists: dose response cell-based high-throughput screening assay to identify agonists of the transient receptor potential channel N1 (TRPN1). [Related pubchem assays: 1526, 1424, 1448 ]; assay type: functional
[15] = target: Mucolipin-3 (Homo sapiens, UniProt Q8TDD5); test: Dose response cell-based high-throughput screening assay for agonists of the transient receptor potential channel ML3 (TRPML3). [Related pubchem assays: 1526, 1424, 1448 ]; assay type: functional
Chain of Mucolipin-3 (Q8TDD5 whole entry): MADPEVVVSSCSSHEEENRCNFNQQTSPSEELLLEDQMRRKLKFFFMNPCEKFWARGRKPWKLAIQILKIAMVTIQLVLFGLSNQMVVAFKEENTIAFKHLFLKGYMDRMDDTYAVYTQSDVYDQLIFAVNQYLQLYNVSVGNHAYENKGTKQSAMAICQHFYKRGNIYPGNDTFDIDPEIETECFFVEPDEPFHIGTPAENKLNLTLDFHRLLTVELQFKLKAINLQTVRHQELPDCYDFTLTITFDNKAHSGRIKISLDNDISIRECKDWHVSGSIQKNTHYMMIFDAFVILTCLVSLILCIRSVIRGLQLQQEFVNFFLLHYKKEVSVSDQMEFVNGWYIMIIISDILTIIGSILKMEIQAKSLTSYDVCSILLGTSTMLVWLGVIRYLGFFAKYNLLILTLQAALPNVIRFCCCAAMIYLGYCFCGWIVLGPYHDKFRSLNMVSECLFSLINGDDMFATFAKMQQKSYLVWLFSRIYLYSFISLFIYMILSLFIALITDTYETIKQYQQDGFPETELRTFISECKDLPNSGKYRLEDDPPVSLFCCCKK

[16] = NIH3T3 cell viability loss – ATP luminescence, mouse fibroblasts, counter-screen, dose response (AID 2010); assay type: functional, cell-based;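 note: cells exposed to compound for about 90 hours before reading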
[17] = Trypanosoma cruzi growth suppression in host cells – NIH3T3 host cells, beta-gal luminescence, confirmation (AID 2044); assay type: functional, cell-based;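 note: intracellular parasites grown in NIH/3T3 mouse fibroblasts as host cells; luminescent beta-galactosidase reporter signal from transgenic T. cruzi replicating inside host cells; inhibitors lower the luminescence signal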
[18] = target: Heat shock protein HSP 90-alpha (Homo sapiens, UniProt P07900); assay type: functional, organism-based
[19] = system: HeLa; test: Cytotoxicity counterscreen assay for transcriptional activators of heat shock protein 70 (Hsp70). [Related pubchem assays: 1203, 1252 ]; assay type: functional; details: Homo sapiens;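 note: cells exposed to compound for 16 hours before readout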
[20] = system: INS1; test: INS-1E survival protection against cytokine death – cell-based, luminescence, retest, dose response (AID 449756); assay type: functional; details: Rattus norvegicus;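 note: cell death triggered by IL-1 beta plus TNF-alpha plus IFN-gamma mixture; protective hits raise ATP signal compared with cytokine alone wells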
[21] = viability of uninfected HEp-2 cells – cell-based, HTS, cytotoxicity control for RSV inhibitor project, dose response (AID 2410); assay type: functional; details: human respiratory syncytial virus
[22] = target: 5-hydroxytryptamine receptor 1E (Homo sapiens, UniProt P28566); test: Counterscreen assay for S1P3 antagonists: Dose response cell-based high throughput screening assay to identify antagonists of the 5-Hydroxytryptamine Receptor Subtype 1E (5HT1E). [Related pubchem assays: 1429, 485 ]; assay type: functional
[23] = viability of HCT116 lacking mutant beta-catenin – cell-based, human colon tumor, dose response (AID 1045); assay type: functional;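 note: HCT116 colon tumor cells with beta catenin knocked out; cells exposed to compound for 60 hours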
[24] = viability of PTEN-deleted HCT116 cells – cell-based, HCT116 PTEN knockout, dose response (AID 1047); assay type: functional;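 note: HCT116 colon tumor cells with PTEN knocked out; cells exposed to compound for 60 hours before readout; potency for loss of cell viability measured by luminescence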
[25] = target: Sphingosine 1-phosphate receptor 3 (Homo sapiens, UniProt Q99500); test: Dose response cell-based high throughput screening assay for antagonists of the Sphingosine 1-Phosphate Receptor 3 (S1P3). [Related pubchem assays: 1429, 485 ]; assay type: functional
Chain of Sphingosine 1-phosphate receptor 3 (Q99500 whole entry): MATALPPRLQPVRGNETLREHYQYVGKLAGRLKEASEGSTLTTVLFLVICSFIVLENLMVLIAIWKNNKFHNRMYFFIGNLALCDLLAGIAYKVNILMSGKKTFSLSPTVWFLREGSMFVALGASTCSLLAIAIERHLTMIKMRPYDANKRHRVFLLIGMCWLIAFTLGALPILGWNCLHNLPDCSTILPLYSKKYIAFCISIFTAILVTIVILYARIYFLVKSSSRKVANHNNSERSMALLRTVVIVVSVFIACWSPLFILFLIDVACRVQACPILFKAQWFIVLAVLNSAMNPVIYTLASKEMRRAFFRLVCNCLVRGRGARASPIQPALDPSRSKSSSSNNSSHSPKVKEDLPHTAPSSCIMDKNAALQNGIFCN

[26] = target: T7, Leucine aminopeptidase (Plasmodium falciparum 3D7, UniProt Q8IL11); test: P. falciparum M17LAP inhibitors, primary screen, biochemical, fluorogenic H-Leu-NHMec substrate, 1536-well (AID 1619); assay type: functional
T7 sequence (Q8IL11 whole entry): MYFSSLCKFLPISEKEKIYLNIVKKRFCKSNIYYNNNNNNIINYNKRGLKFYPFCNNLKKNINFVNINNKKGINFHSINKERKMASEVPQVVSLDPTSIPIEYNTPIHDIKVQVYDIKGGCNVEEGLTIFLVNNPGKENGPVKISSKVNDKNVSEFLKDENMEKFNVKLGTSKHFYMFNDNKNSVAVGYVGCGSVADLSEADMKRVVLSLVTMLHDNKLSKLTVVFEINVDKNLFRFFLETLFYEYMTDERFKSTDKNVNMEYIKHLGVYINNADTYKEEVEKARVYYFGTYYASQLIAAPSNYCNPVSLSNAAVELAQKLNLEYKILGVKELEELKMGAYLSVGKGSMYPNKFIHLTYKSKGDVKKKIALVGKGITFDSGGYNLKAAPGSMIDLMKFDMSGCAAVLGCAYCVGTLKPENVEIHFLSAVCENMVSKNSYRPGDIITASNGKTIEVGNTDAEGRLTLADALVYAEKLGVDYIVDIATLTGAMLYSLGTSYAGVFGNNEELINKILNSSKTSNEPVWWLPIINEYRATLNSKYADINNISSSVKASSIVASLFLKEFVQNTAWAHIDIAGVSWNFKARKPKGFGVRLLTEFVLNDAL

[27] = mitochondrial function rescue without frataxin homolog – Friedreich's ataxia, plus single-dose screen, dose response (AID 1465); assay type: functional;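 note: yeast depleted of Yfh1p frataxin homolog grown on glycerol needing respiration; WST-1 tetrazolium dye reduction as measure of cellular dehydrogenase metabolic activity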
[28] = system: HT-1080; test: HT1080 cell viability loss – fluorescence readout (AID 620); assay type: functional, cell-based; details: Homo sapiens
[29] = target: Luciferin 4-monooxygenase (Photinus pyralis, UniProt P08659); test: Counter Screen for Luciferase-based Assay Positives. [Related pubchem assays: 620, 618, 411 ]

T1 sequence (P98170 whole entry): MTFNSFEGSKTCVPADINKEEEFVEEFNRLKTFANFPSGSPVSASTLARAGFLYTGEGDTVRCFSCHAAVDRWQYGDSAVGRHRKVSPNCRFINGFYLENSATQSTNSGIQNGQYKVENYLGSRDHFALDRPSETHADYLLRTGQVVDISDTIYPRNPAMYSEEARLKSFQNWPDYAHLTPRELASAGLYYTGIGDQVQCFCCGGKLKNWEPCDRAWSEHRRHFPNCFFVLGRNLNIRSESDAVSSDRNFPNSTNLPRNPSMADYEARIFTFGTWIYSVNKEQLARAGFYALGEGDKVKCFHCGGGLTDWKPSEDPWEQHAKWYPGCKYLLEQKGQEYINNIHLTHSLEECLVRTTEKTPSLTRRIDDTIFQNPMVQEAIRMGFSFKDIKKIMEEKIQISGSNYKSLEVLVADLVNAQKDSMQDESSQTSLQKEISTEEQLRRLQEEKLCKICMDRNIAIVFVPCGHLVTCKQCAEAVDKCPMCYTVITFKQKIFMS

O=C(CCN1C(=O)C2C3C=CC(C3)C2C1=O)N1CCN(c2ccccc2F)CC1 (stereo unspecified)
IC50 [1]: > 100 µM (not active)
IC50 [2]: > 100 µM (inactive)

O=C(NCc1cccc(F)c1)C1CCN(S(=O)(=O)Cc2ccccc2)CC1
IC50 [3]: > 59.6 µM (not active)
IC50 [4]: 1.71 µM (active)
IC50 [5]: > 73.5 µM (not active)

Cc1cc(C(=O)O)c(C)n1Cc1ccccc1
EC50 [6]: > 30 µM (not active)

Clc1ccc2c(c1)Nc1ccccc1S2
IC50 [7]: 0.254 µM (active)

CCN1C(=O)c2cccc3cccc1c23
IC50 [8]: > 50 µM (inactive)
IC50 [9]: 20.5 µM (active)
IC50 [10]: 32 µM (active)
IC50 [11]: 33.9 µM (active)

CC(C)Oc1nc(-c2ccc(Cl)cc2)nc2ccccc12
EC50 [12]: 51.2 µM (active)
EC50 [13]: 6.9 µM (active)

Cc1ccccc1S(=O)(=O)c1c(C)cc(C)n(C(C)C)c1=O
EC50 [14]: > 29.9 µM (not active)
EC50 [15]: 2.44 µM (active)

N#C/C(=C/c1ccc(N2CCCCCC2)o1)c1ccc(Cl)cc1
IC50 [8]: > 50 µM (inactive)
IC50 [9]: 4.77 µM (active)
EC50 [16]: > 60 µM (inconclusive)
EC50 [17]: 1.81 µM (active)
AC50 [18]: 20.4 µM (active)
CC50 [19]: > 99 µM (not active)
AC50 [20]: 8.91 µM (active)
CC50 [21]: 16.9 µM (active)

O=C(OC(C(=O)Nc1cccc(C(F)(F)F)c1)c1ccccc1)C1CCCCC1 (stereo unspecified)
IC50 [22]: 11.2 µM (not active)
EC50 [23]: 518 µM (active)
EC50 [24]: 118 µM (active)
IC50 [25]: 7.69 µM (active)

O=C(O)CN1C(=O)/C(=C\c2cn(CC(=O)N3CCOCC3)c3ccccc23)SC1=S
IC50 [26]: 13.1 µM (active)
EC50 [27]: > 100 µM (active)

C=CCNc1ncnc2c1cnn2-c1ccc(OC)cc1
EC50 [28]: > 50 µM (not active)
EC50 [29]: 0.33 µM (active)
